According to ChEMBL document CHEMBL4706500, “Identification of dibucaine derivatives as novel potent enterovirus 2C helicase inhibitors: In vitro, in vivo, and combination therapy study” (Eur J Med Chem, 2020):
Calls of active or inactive are those of the source. The rule behind the calls is not given here.

Assays:
Enterovirus A71 [1] = assay: Antiviral activity against Enterovirus A71 infected in human RD cells assessed as inhibition of viral replication measured by CCK-8 assay; format: functional, organism-based; settings: Enterovirus A
RD [2] = assay: Cytotoxicity against human RD cells infected with Enterovirus A71 assessed as reduction in cell viability measured by CCK-8 assay; format: functional
[3] = Selectivity index, ratio of CC50 for human RD cells infected with Enterovirus A71 to EC50 for Enterovirus A71 infected in human RD cells; format: toxicity, cell-based; settings: read-out: Selectivity Index
Enterovirus A71 [4] = assay: Antiviral activity against Enterovirus A71 infected in human RD cells assessed as inhibition of viral replication measured after 48 hrs by plaque assay; format: functional, organism-based
Enterovirus A71 [5] = assay: Antiviral activity against Enterovirus A71 infected in African green monkey vero cells assessed as down regulation of VP1 expression measured after 24 hrs by immunofluorescence assay; format: functional, organism-based
Enterovirus A71 [6] = assay: Antiviral activity against Enterovirus A71 infected in human RD cells assessed as inhibition of VP1 expression measured after 24 hrs by Western blot assay; format: functional, organism-based
Enterovirus A71 [7] = assay: Antiviral activity against Enterovirus A71 infected in human RD cells assessed as inhibition of 2C expression measured after 24 hrs by Western blot assay; format: functional, organism-based
Enterovirus A71 [8] = assay: Antiviral activity against Enterovirus A71 at early stage of life cycle infected in human RD cells assessed as VP1 expression at 3.2 uM treated 12 hpi measured upto 8 hrs by time of addition assay; format: functional, organism-based; settings: time hrs <=8
Enterovirus A71 [9] = assay: Antiviral activity against Enterovirus A71 at early stage of life cycle infected in African green monkey Vero cells assessed as VP1 expression at 3.2 uM treated 12 hpi measured upto 8 hrs by time of addition assay; format: functional, organism-based; settings: time hrs <=8
Enterovirus A71 [10] = assay: Antiviral activity against Enterovirus A71 infected in African green monkey Vero cells assessed as reduction in viral RNA titer levels at early stage of life cycle at 3.2 uM treated 12 hpi measured upto 8 hrs by time of addition assay; format: functional, organism-based; settings: time hrs <=8
Enterovirus A71 [11] = assay: Antiviral activity against Enterovirus A71 infected in human RD cells using HEX-labelled RNA as substrate assessed as inhibition of dsRNA unwinding by measuring accumulation of dsRNA at 4.95 uM treated 8 hpi by gel based flourescence assay; format: functional, organism-based
Enterovirus A71 [12] = assay: Antiviral activity against Enterovirus A71 infected in human RD cells using HEX-labelled RNA as substrate assessed as increase in accumulation of 2C at 4.95 uM measured after 8hpi by gel based flourescence assay; format: functional, organism-based
RD [13] = assay: Inhibition of 2C ATPase helicase activity in Enterovirus A71 infected in human RD cells measured by gel electrophoresis method; format: cell-based
Enterovirus A71 [14] = assay: Antiviral activity against EV-A71 GZ-C11 infected in KM mouse assessed as improvement in survival rate administered 4 mg/kg, po bid for 4 days starting 6 hrs post infection measured on day 14 (reference value: 30%); format: functional; settings: Enterovirus A, 96 h, time 4 day
Enterovirus A71 [15] = assay: Antiviral activity against EV-A71 GZ-C11 infected in KM mouse assessed as improvement in survival rate administered 6 mg/kg, po bid for 4 days starting 6 hrs post infection measured on day 14 (reference value: 30%); format: functional; settings: Enterovirus A, 96 h, time 4 day
Enterovirus A71 [16] = assay: Antiviral activity against EV-A71 GZ-C11 infected in KM mouse assessed as decrease in viral infection clinical symptoms administered 6 mg/kg, po bid for 4 days treatment started 6 hrs post infection measured on day 14 relative to control; format: functional, organism-based; settings: time 14.0 day
[17] = Toxicity in 14 day suckling KM mouse assessed as changes in weight growth at 6 mg/kg, po bid for 4 successive days measured on day 12 relative to control; format: organism-based; settings: in vivo, 288 h, time 12 day
Enterovirus A71 [18] = assay: Antiviral activity against EV-A71 GZ-C11 infected in KM mouse assessed as prevention of death administered in presence of emetine at 6 mg/kg, po; format: functional, organism-based
Enterovirus A71 [19] = assay: Antiviral activity against Enterovirus A71 infected in human RD cells using HEX-labelled RNA as substrate assessed as inhibition of dsRNA unwinding by measuring accumulation of dsRNA at 0.56 uM treated 8 hpi by gel based flourescence assay; format: functional, organism-based

| Compound | EC50 (Enterovirus A71 [1]) [µM] | CC50 (RD [2]) [µM] | selectivity ratio [3] | further results |
| --- | --- | --- | --- | --- |
| CCCCCCOc1cc(C(=O)NCCN(C)C)c2ccccc2n1 | 2.27 | 36.4 | 16 |  |
| CCOc1cc(C(=O)NCC(C)C)c2ccccc2n1 | > 100 |  |  |  |
| CCCCOc1cc(C(=O)NCCN(C)C)c2ccccc2n1 | 1.24 | 106 | 85.4 | Activity (Enterovirus A71 [4]): Active; Activity (Enterovirus A71 [5]): Active; Activity (Enterovirus A71 [6]): Active; Activity (Enterovirus A71 [7]): Active; Activity (Enterovirus A71 [8]): Active; Activity (Enterovirus A71 [9]): Active; Activity (Enterovirus A71 [10]): Active; Activity (Enterovirus A71 [11]): Active; Activity (Enterovirus A71 [12]): Active; inhibition (RD [13]): Active; survival at 4 mg/kg (Enterovirus A71 [14]): 30%; survival at 6 mg/kg (Enterovirus A71 [15]): 67%; Activity (Enterovirus A71 [16]): Active; Activity [17]: Non-Toxic; Activity (Enterovirus A71 [18]): Active |
| CCN(CC)CCNC(=O)c1cc(OC)nc2ccccc12 | 27.7 | > 111 | > 4 |  |
| CCCCCCOc1cc(C(=O)NCCN(CC)CC)c2ccccc2n1 | 4.21 | 33.6 | 8 |  |
| CCCCCOc1cc(C(=O)NCCN(CC)CC)c2ccccc2n1 | 5.83 | 35 | 6 |  |
| CCCCOc1cc(C(=O)NCCN2CCCC2)c2ccccc2n1 | 1.53 | > 97.7 | > 64.1 |  |
| CCCCCOc1cc(C(=O)NCCN(C)C)c2ccccc2n1 | 1.58 | 75.9 | 48 |  |
| CCCCOc1cc(C(=O)NCCCN(C)C)c2ccccc2n1 | 100 |  |  |  |
| CCCOc1cc(C(=O)NCC(C)C)c2ccccc2n1 | 58.2 | 87.3 | 1.5 |  |
| CCCCOc1cc(C(=O)NCCN2CCCCC2)c2ccccc2n1 | 1.47 | 93.8 |  |  |
| CCCOc1cc(C(=O)NCCN(C)C)c2ccccc2n1 | 1.58 | > 111 | > 70 |  |
| CCCCOc1cc(C(=O)NCCN(CC)CC)c2ccccc2n1 [DIBUCAINE] | 2.27 | > 97 | > 42.7 |  |
| CCCNC(=O)c1cc(OCCC)nc2ccccc12 | > 100 |  |  |  |
| CCCCOc1cc(C(=O)NCCCN(CC)CC)c2ccccc2n1 | 100 |  | 64 |  |
| CC(C)CNC(=O)c1cc(OC(C)C)nc2ccccc12 | 58.2 | > 116 | > 2 |  |
| CC(C)S(=O)(=O)n1c(N)nc2ccc(/C(=N/O)c3ccccc3)cc21 [ENVIROXIME] | 0.14 | 28 | 200 | Activity (Enterovirus A71 [19]): inactive |
| CCOc1cc(C(=O)NCCN(CC)CC)c2ccccc2n1 | 2.48 | > 106 | > 42.7 |  |
| CCOc1cc(C(=O)NCCN(C)C)c2ccccc2n1 | 3.62 | 116 | 31.9 |  |
| CCCNC(=O)c1cc(OCC)nc2ccccc12 | 2.02 | > 70.2 | > 34.8 |  |
| CCCOc1cc(C(=O)NCCN(CC)CC)c2ccccc2n1 | 2.37 | > 101 | > 42.7 |  |
